Results on 2 compounds are retold here after patent publication US20040161813A1, “Structure of beta-ketoacyl-[acyl carrier protein] synthases complexed with inhibitors and methods of use thereof” (St. Jude Children's Research Hospital, priority 2000, published 2004).

“Also recorded” adds a separate entry of the source. Where two headings read alike, the source gives them in different places. Where only a bound is given, the exact number is not on record here.

For one series, the target named is T1, FabB[H333N] (Escherichia coli, UniProt P0A953, H333N).
T1 construct: made in house; host or cells: pET-15b-FabB expression vector; Novagen expression strains
T1 sequence (P0A953 1-406 H333N): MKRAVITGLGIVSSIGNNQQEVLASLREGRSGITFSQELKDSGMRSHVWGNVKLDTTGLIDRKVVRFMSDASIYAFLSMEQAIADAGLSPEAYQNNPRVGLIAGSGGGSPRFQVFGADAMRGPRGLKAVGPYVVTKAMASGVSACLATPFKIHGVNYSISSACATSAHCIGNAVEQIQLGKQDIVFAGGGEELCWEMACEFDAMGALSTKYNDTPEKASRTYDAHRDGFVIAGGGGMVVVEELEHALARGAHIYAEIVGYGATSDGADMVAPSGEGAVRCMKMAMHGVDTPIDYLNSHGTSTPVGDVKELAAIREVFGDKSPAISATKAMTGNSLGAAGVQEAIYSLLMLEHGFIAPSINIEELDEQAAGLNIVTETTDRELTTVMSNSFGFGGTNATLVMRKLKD
The series is described as follows: FabB[H333N] mutant radiochemical assay with 14:0-ACP primer. It counts as biochemical. The note with it: inhibition by cerulenin. The protocol:
(§1) FabB and FabF radiochemical assay was performed using the scheme devised by Garwin et al. (11) using myristoyl-ACP as the substrate. The assays contained 100 μM ACP, 0.3 mM dithiothreitol, 1 mM EDTA, 0.1 M potassium phosphate buffer, pH 6.8, 50 μM [^14C]malonyl-CoA (specific activity 55 Ci/mole), 100 μM myristoyl-ACP, FabD (0.3 μg of protein), in a final volume of 20 μl. A mixture of ACP, 0.3 mM DTT, 1 mM EDTA, and the buffer was incubated at 37° C. for 30 min to ensure complete reduction ACP, and then the remaining components (except the condensing enzyme) were added. The mixture was then aliquoted into the assay tubes and the reaction was initiated by the addition of FabB or FabF. The reaction mixture was incubated at 37° C. for 20 min, then 400 μl of reducing agent (0.1 M K2HPO4, 0.4 M KCl, 30% tetrahydrofuran, and 5 mg/ml sodium borohydride) was added into the reaction tubes and incubated for 40 min.
(§2) Finally, 400 μl of toluene was added, vigorously mixed, and 300 μl of upper phase solution was counted in 3 ml of scintillation cocktail.
Construction of the FabB[H333N] mutant—A portion of the fabB gene was amplified using the polymerase chain reaction with two specific primers. The first primer introduced the desired mutation, and extended over a unique AgeI site (5′-[…]-3′, SEQ ID NO:3). The second primer created a BamHI site downstream of the stop codon (5′-[…]-3′, SEQ ID NO:4). […]

Series [1] has as its target T2, E. coli FabB (β-ketoacyl-ACP synthase I) (Escherichia coli, UniProt P0A953).
T2 construct: made in house; host or cells: pET-15b-FabB expression vector; Novagen expression strains
The series is described as follows: FabB radiochemical condensing enzyme assay with myristoyl-ACP. Format: biochemical. The protocol:
as §1, §2

The next series deals with T3, FabB (Escherichia coli, UniProt P0A953).
T3 construct: made in house; host or cells: pET-15b-FabB expression vector; Novagen expression strains
Kind of series: Time course of FabB inhibition (reversibility). It counts as biochemical. The note with it: for Reversibility of FabB inhibition: 20 μM TLM or 3 μM cerulenin, with or without 30 min preincubation. On the procedure: The time course for the inhibition of FabB activity under five experimental conditions was determined to address the reversibility of the antibiotics. Time course for the FabB reaction in the absence of inhibitors (▾), in the presence of 20 μM TLM (●) or 3 μM cerulenin (∘). FabB was preincubated with either 20 μM TLM (▪) or 3 μM cerulenin (□) for 30 min prior to initiation of the reaction by the addition of the other substrates. FabB activity was measured using the radiochemical assay with myristoyl-ACP as the substrate as described under “Experimental Procedures” in the Example below.
as §1, §2
This hypothesis was examined by comparing the kinetics of TLM inhibition to that of cerulenin (FIG. 2), which is known to form a covalent complex with the active site cysteine of the condensing enzymes. […] This indicates the formation of the irreversible FabB-cerulenin binary complex. The same two types of time course experiments were performed with TLM (FIG. 2A).

In series [2] the target is T4, E. coli FabH (β-ketoacyl-ACP synthase III) (Escherichia coli, UniProt P0A6R0).
T4 construct: made in house
Kind of series: FabH filter disc assay with [1-14C]acetyl-CoA. Format: biochemical. On the procedure: A filter disc assay was used to assay FabH activity with [1-^14C]acetyl-CoA as described previously (15,18). The assays contained 100 μM ACP, 1 mM β-mercaptoethanol, 45 μM [^14C]acetyl-CoA (specific activity, 52.0 Ci/mole), and 50 μM malonyl-CoA, E. coli FabD (0.3 μg) and 0.1 M sodium phosphate buffer (pH 7.0) in a final volume of 40 μl. The reaction was initiated by the addition of FabH and the mixture was incubated at 37° C. for 12 min. A 35-μl aliquot was removed and deposited on a Whatman 3MM filter disc. The discs were washed with three changes (20 ml/disc for 20 min) of ice-cold trichloroacetic acid. The concentration of the trichloroacetic acid was reduced from 10 to 5 to 1% in each successive wash. The filters were dried and counted in 3 ml of scintillation cocktail.

For series [3], the target named is T5, E. coli FabF (β-ketoacyl-ACP synthase II) (Escherichia coli, UniProt P0AAI5).
T5 construct: made in house
Kind of series: FabF radiochemical condensing enzyme assay with myristoyl-ACP. It counts as biochemical. On the procedure: as §1, §2

The target in the next series is B. subtilis FabF (Bacillus subtilis, UniProt O34340). The series is described as follows: Inhibition of B. subtilis FabF in vitro. Format: biochemical.
In series [4] the test system is urinary tract and intraperitoneal bacterial infections. The note with it: mice; cited from earlier work.
For series [5] the following is noted: cited from earlier work.

T3 sequence (P0A953 whole entry): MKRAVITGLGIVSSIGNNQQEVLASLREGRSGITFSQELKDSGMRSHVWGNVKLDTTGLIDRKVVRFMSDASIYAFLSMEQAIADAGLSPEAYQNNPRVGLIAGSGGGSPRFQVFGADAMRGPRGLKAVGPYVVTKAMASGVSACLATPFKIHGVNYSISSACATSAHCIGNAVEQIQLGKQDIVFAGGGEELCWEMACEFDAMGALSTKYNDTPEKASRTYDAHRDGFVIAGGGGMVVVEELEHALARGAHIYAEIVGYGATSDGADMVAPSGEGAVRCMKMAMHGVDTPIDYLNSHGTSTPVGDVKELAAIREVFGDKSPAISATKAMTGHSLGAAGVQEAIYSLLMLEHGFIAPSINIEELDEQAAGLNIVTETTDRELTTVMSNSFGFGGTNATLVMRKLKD
T4 sequence (P0A6R0 whole entry): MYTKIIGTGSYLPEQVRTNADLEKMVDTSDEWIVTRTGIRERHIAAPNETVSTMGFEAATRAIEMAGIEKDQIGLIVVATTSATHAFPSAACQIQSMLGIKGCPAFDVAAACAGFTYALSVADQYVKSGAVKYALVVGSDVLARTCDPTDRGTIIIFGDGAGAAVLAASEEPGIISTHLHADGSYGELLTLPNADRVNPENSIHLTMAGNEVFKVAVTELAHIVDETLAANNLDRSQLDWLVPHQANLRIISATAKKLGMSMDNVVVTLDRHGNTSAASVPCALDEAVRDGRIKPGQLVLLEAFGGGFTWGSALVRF
T5 sequence (P0AAI5 whole entry): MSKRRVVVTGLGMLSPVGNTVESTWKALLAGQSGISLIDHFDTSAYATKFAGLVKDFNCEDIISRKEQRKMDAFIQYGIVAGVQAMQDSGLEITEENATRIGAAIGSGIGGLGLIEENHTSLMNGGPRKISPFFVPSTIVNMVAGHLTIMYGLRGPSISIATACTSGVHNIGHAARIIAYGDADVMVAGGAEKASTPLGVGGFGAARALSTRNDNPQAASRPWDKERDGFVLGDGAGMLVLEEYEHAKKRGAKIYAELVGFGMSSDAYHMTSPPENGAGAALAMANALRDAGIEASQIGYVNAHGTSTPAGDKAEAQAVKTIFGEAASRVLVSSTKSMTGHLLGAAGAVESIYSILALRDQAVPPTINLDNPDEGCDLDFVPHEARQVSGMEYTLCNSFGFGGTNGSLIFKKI
T2 sequence (P0A953 whole entry): as the sequence (P0A953 whole entry) above
Sequence of B. subtilis FabF (O34340 whole entry): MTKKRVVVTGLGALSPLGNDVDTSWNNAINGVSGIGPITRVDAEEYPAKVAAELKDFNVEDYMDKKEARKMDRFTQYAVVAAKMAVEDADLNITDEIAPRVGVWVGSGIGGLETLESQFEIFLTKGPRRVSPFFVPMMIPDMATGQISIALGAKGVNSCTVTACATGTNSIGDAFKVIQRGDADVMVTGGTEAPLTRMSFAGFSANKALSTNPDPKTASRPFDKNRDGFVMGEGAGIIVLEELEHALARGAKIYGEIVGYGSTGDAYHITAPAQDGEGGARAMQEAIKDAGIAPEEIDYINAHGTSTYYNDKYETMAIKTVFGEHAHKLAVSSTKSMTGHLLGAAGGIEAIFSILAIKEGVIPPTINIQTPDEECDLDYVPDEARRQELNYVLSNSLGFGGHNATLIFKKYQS

Turning to `C/C=C/C/C=C/CCC(=O)[C@H]1O[C@H]1C(N)=O` [cerulenin, (2R,3S)-2,3-epoxy-4-oxo-7,10-dodecandienolyamide], the IC50 against FabB[H333N] is 30 µM; in series [1] (purified E. coli enzyme, myristoyl-ACP (14:0-ACP) substrate, read-out: IC50 FabB), 3 µM; in series [2] (purified E. coli enzyme, acetyl-CoA primer, read-out: IC50 FabH) it was > 700 µM; in series [3] (purified E. coli enzyme, myristoyl-ACP substrate, read-out: IC50 FabF) it was 20 µM. Besides, the “Product formation after preincubation of inhibitor with FabB” value on FabB (3 μM cerulenin preincubated 30 min, reaction initiated with substrates) is “no discernable product formation”. Also, the “Reversibility of FabB inhibition” value on FabB is recorded as “slow-binding, irreversible inhibitor; also recorded: irreversibly inhibited”. In addition, the “Sensitivity of FabH to inhibitor” value in series [2] is reported as “essentially resistant”.

With `C=C/C(C)=C/C1(C)SC(=O)C(C)=C1O` (stereo in doubt) [TLM, (4S)(2E,5E)-2,4,6-trimethyl-3-hydroxy-2,5,7-octatriene-4-thiolide], on B. subtilis FabF, the “Inhibition of B. subtilis FabF in vitro” value was “very weak inhibitor”. Besides, the values for the half-inhibitory concentration (IC50) in series [1], in series [2] and in series [3] were 25 µM, 110 µM and 6 µM, respectively. Also, the “Protection against urinary tract and intraperitoneal bacterial infections” value in series [4] is reported as “significant protection”. The “Reversibility of FabB inhibition” value on FabB is “reversible inhibitor; also recorded: reversibly inhibited”. For the same compound, the Toxicity to mice result in series [5] is given as “not toxic”.

For orientation: IC50 means the midpoint of a concentration-inhibition curve.
